Source: patent US20130183686A1, “METHOD OF EVALUATING IMMUNOSUPPRESSION” (priority 2008, published 2013)
“Also recorded” adds a separate entry of the source.

Tests used:
Assay type in all cases: cell-based, human
NFAT [1] = test: PMA/Ion-induced NFAT activation potential in CD4+ and CD8+ T cells of stable transplant recipients receiving tacrolimus
Protocol: Protocol to measure the NF-κB and/or NFAT activation potential in immunophenotypically defined cell populations: Obtain peripheral blood sample in sodium heparin container. Keep PBL sample at ambient room temperature. Prepare sufficient number of 15 mL polypropylene tubes (10-9152N, Niagara Scientific, Lancaster, N.Y.) to accommodate the number of variables to be tested. One tube is needed for the unstimulated control, one for the unstimulated cell line control (HL60 […] or Jurkat) and two (1 for HL60 and 1 for patient sample) for each of the stimulation conditions to be tested (e.g. PMA/Ion, TNFα, CD3/CD28, etc.). Aliquot 500 μl whole blood per tube for the patient samples. For cell line controls, add enough volume from culture flask to yield 2×10^6 cells/tube. […]
Cell line controls are washed in 1× Phosphate Buffered saline solution (1×PBS) (Mediatech, Herndon, Va.), and then fixed by adding 1 ml of a 4% solution of methanol free Formaldehyde (Polysciences, Warrington, Pa.) at room temperature for 10 minutes. Cells are washed twice in 1×PBS, spin, and resuspend cell pellets in residual volume (they are now ready to be probed for NF-κB and/or NFAT and are left at room temperature until whole blood samples are ready). […] Cells are now ready to be probed for NF-κB and/or NFAT. […] Samples are then washed in 1×PBS and are ready to be run on the imaging cell sorting machine. […]

NFAT1 = test: PMA/Ionomycin-induced NFAT1 translocation in Jurkat cells incubated in patient plasma obtained after in vivo tacrolimus administration; conditions: patient plasma obtained between 1 h and 12 h after tacrolimus administration (FIGS. 8 and 9)
NFAT [2] = test: PMA/Ionomycin-induced NFAT translocation in healthy donor cells, imaging flow cytometry
NFkB = test: PMA/Ionomycin-induced NFkB activation in healthy donor CD4+ cells in plasma, imaging flow cytometry; conditions: increasing concentrations of Tacrolimus (FIG. 6)

C=CC[C@@H]1/C=C(\C)C[C@H](C)C[C@H](OC)[C@H]2O[C@@](O)(C(=O)C(=O)N3CCCC[C@H]3C(=O)O[C@H](/C(C)=C/[C@@H]3CC[C@@H](O)[C@H](OC)C3)[C@H](C)[C@@H](O)CC1=O)[C@H](C)C[C@@H]2OC [tacrolimus]
correlation between trough tacrolimus levels and NFAT activation potential (NFAT [1]; CD4+ and CD8+ cells of transplant recipients chronically exposed to tacrolimus): Neither for CD4+ nor CD8+ cells was a correlation found; also recorded: no statistically significant dose-response relationship was observed | difference in NFAT activation potential before (0 h) and after (4 h) a dose (NFAT [1]; CD4+ or CD8+ cells of stable transplant recipients): did not determine a significant difference | inhibitory effect on NFAT in cells naive to previous tacrolimus exposure (NFAT1): closely mirrors that of the expected plasma levels; also recorded: a good dose-response was observed | NFAT translocation potential (NFAT [2]; healthy donor CD4+ cells in plasma, increasing concentrations of Tacrolimus (FIG. 6)): dose-dependent decrease | inhibition of PMA/Ion-induced NFAT translocation (NFAT [2]; healthy donor peripheral blood, CD4+ cells in culture medium, increasing concentration of tacrolimus (FIG. 5)): dose-dependent inhibition | correlation between extracellular concentrations and PMA/Ionomycin-induced NFAT1 activation potential (NFAT [2]; in vitro, spiked into tissue culture media, plasma or whole blood, naive cells (Jurkat or healthy donor CD4+ or CD8+ T cells)): a strong correlation is observed | inhibitory effect on NFkB activation (NFkB): less pronounced for NFkB but can be seen at higher drug concentrations
